Assay: xn = mol fraction of the nth substance listed
Conditions: 101 kPa, Liquid; for viscosity: Capillary tube (Ostwald / Ubbelohde) method; for speed of sound: Linear variable-path acoustic interferometer

Cc1ccccc1C [1,2-dimethylbenzene] + C1CCOC1
Conditions | speed of sound, 288.15 K [m/s] | speed of sound, 298.15 K [m/s] | speed of sound, 308.15 K [m/s] | speed of sound, 318.15 K [m/s] | viscosity, 288.15 K [mPa·s] | viscosity, 298.15 K [mPa·s] | viscosity, 308.15 K [mPa·s] | viscosity, 318.15 K [mPa·s]
x2 = 0 | 1388.5 | 1350.3 | 1321.4 | 1285.8 | 0.8623 | 0.7576 | 0.669 | 0.5972
x2 = 0.0764 | 1384.3 | 1345.1 | 1314.5 | 1277.9 | 0.8385 | 0.738 | 0.6535 | 0.585
x2 = 0.1504 | 1380 | 1340 | 1307.8 | 1270.2 | 0.8155 | 0.7192 | 0.6384 | 0.573
x2 = 0.2243 | 1375.7 | 1335 | 1301.1 | 1262.7 | 0.7919 | 0.6998 | 0.6226 | 0.5602
x2 = 0.2942 | 1371.4 | 1330 | 1294.8 | 1255.6 | 0.769 | 0.6807 | 0.6067 | 0.5471
x2 = 0.366 | 1366.9 | 1324.9 | 1288.3 | 1248.4 | 0.7451 | 0.6606 | 0.59 | 0.5331
x2 = 0.4226 | 1363.4 | 1320.9 | 1283.2 | 1242.8 | 0.726 | 0.6445 | 0.5764 | 0.5216
x2 = 0.4801 | 1359.7 | 1316.7 | 1278 | 1237.1 | 0.7063 | 0.6277 | 0.5621 | 0.5094
x2 = 0.531 | 1356.3 | 1313 | 1273.4 | 1232.1 | 0.6888 | 0.6127 | 0.5493 | 0.4981
x2 = 0.585 | 1352.6 | 1309 | 1268.5 | 1226.8 | 0.6694 | 0.5959 | 0.5348 | 0.4856
x2 = 0.6578 | 1347.6 | 1303.6 | 1262 | 1219.7 | 0.6432 | 0.5731 | 0.515 | 0.4684
x2 = 0.7322 | 1342.5 | 1298 | 1255.4 | 1212.5 | 0.6159 | 0.5493 | 0.4941 | 0.4498
x2 = 0.8049 | 1337.4 | 1292.5 | 1248.9 | 1205.6 | 0.5887 | 0.5253 | 0.4729 | 0.431
x2 = 0.8708 | 1332.6 | 1287.5 | 1243 | 1199.3 | 0.5635 | 0.503 | 0.453 | 0.413
x2 = 0.9392 | 1327.7 | 1282.3 | 1236.9 | 1192.9 | 0.537 | 0.4794 | 0.4319 | 0.394

From the NIST ThermoML archive (doi:10.1016/j.fluid.2007.07.016)
